Reference: the supplement of paper PMC13207355

Assays:
Settings in all cases: exposure time: 72 h
[1] = system: E13 (patient-derived glioblastoma stem cells of classical subtype); assay: surviving fraction (nuclei count normalised to DMSO); higher = more cells surviving (less toxic)
[2] = system: E21 (patient-derived glioblastoma stem cells of mesenchymal subtype); assay: as above
[3] = system: E28 (patient-derived glioblastoma stem cells of classical subtype); assay: as above
[4] = system: E31 (patient-derived glioblastoma stem cells of proneural subtype); assay: as above
[5] = system: E34 (patient-derived glioblastoma stem cells of proneural subtype); assay: as above
[6] = system: E57 (patient-derived glioblastoma stem cells of mesenchymal subtype); assay: as above
[7] = system: FT3469 (normal neural stem cell line); assay: as above
[8] = system: E13; assay: phenotypic distance (Euclidean, principal components) from DMSO controls (arbitrary units); higher = stronger morphological change
[9] = system: E21; assay: as above
[10] = system: E28; assay: as above
[11] = system: E31; assay: as above
[12] = system: E34; assay: as above
[13] = system: E57; assay: as above
[14] = system: FT3469; assay: as above
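Throughout, for phenotypic distance (Euclidean, principal components) from DMSO controls: cell Painting imaging in 384-well plates, CellProfiler features reduced to at least 20 principal components, Euclidean distance versus same-plate DMSO vehicle wells (0.1% v/v), median over six images per well.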
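Throughout, for surviving fraction (nuclei count normalised to DMSO): nuclei counted by high-content imaging of Hoechst-stained cells in laminin-coated 384-well plates, relative to 0.1% DMSO vehicle wells, with staurosporine as cell-death control.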

CC(C)N1CCN(c2ccc(OCC3COC(Cn4cncn4)(c4ccc(Cl)cc4Cl)O3)cc2)CC1 (stereo unspecified) [Terconazole]
surviving fraction ([1]; 4.1 nM): 0.892
surviving fraction ([1]; 12.3 nM): 0.918
surviving fraction ([1]; 37 nM): 0.999
surviving fraction ([1]; 111.1 nM): 0.856
surviving fraction ([1]; 333.3 nM): 0.988
surviving fraction ([1]; 1000 nM): 1.02
surviving fraction ([1]; 3000 nM): 0.958
surviving fraction ([2]; 4.1 nM): 0.938
surviving fraction ([2]; 12.3 nM): 0.927
surviving fraction ([2]; 37 nM): 0.891
surviving fraction ([2]; 111.1 nM): 0.99
surviving fraction ([2]; 333.3 nM): 0.933
surviving fraction ([2]; 1000 nM): 1.03
surviving fraction ([2]; 3000 nM): 0.813
surviving fraction ([3]; 4.1 nM): 1.15
surviving fraction ([3]; 12.3 nM): 1.04
surviving fraction ([3]; 37 nM): 0.91
surviving fraction ([3]; 111.1 nM): 0.941
surviving fraction ([3]; 333.3 nM): 1.09
surviving fraction ([3]; 1000 nM): 1.02
surviving fraction ([3]; 3000 nM): 0.951
surviving fraction ([4]; 4.1 nM): 1.04
surviving fraction ([4]; 12.3 nM): 0.925
surviving fraction ([4]; 37 nM): 0.922
surviving fraction ([4]; 111.1 nM): 1.01
surviving fraction ([4]; 333.3 nM): 0.96
surviving fraction ([4]; 1000 nM): 0.889
surviving fraction ([4]; 3000 nM): 0.873
surviving fraction ([5]; 4.1 nM): 0.941
surviving fraction ([5]; 12.3 nM): 0.827
surviving fraction ([5]; 37 nM): 0.91
surviving fraction ([5]; 111.1 nM): 1.04
surviving fraction ([5]; 333.3 nM): 1.01
surviving fraction ([5]; 1000 nM): 1.1
surviving fraction ([5]; 3000 nM): 0.994
surviving fraction ([6]; 4.1 nM): 0.985
surviving fraction ([6]; 12.3 nM): 0.938
surviving fraction ([6]; 37 nM): 0.963
surviving fraction ([6]; 111.1 nM): 1
surviving fraction ([6]; 333.3 nM): 0.978
surviving fraction ([6]; 1000 nM): 1
surviving fraction ([6]; 3000 nM): 0.948
surviving fraction ([7]; 4.1 nM): 0.997
surviving fraction ([7]; 12.3 nM): 0.89
surviving fraction ([7]; 37 nM): 0.908
surviving fraction ([7]; 111.1 nM): 0.85
surviving fraction ([7]; 333.3 nM): 0.987
surviving fraction ([7]; 1000 nM): 0.952
surviving fraction ([7]; 3000 nM): 0.964
phenotypic distance ([8]; 4.1 nM): 0.687
phenotypic distance ([8]; 12.3 nM): 5.3
phenotypic distance ([8]; 37 nM): 0.523
phenotypic distance ([8]; 111.1 nM): 0.619
phenotypic distance ([8]; 333.3 nM): 0.667
phenotypic distance ([8]; 1000 nM): 0.49
phenotypic distance ([8]; 3000 nM): 0.901
phenotypic distance ([9]; 4.1 nM): 0.486
phenotypic distance ([9]; 12.3 nM): 0.855
phenotypic distance ([9]; 37 nM): 0.706
phenotypic distance ([9]; 111.1 nM): 0.737
phenotypic distance ([9]; 333.3 nM): 0.686
phenotypic distance ([9]; 1000 nM): 0.994
phenotypic distance ([9]; 3000 nM): 1.83
phenotypic distance ([10]; 4.1 nM): 0.79
phenotypic distance ([10]; 12.3 nM): 0.643
phenotypic distance ([10]; 37 nM): 0.472
phenotypic distance ([10]; 111.1 nM): 0.647
phenotypic distance ([10]; 333.3 nM): 0.465
phenotypic distance ([10]; 1000 nM): 0.53
phenotypic distance ([10]; 3000 nM): 2.3
phenotypic distance ([11]; 4.1 nM): 0.557
phenotypic distance ([11]; 12.3 nM): 1.01
phenotypic distance ([11]; 37 nM): 0.47
phenotypic distance ([11]; 111.1 nM): 0.863
phenotypic distance ([11]; 333.3 nM): 0.868
phenotypic distance ([11]; 1000 nM): 0.76
phenotypic distance ([11]; 3000 nM): 2.39
phenotypic distance ([12]; 4.1 nM): 0.517
phenotypic distance ([12]; 12.3 nM): 1.12
phenotypic distance ([12]; 37 nM): 0.485
phenotypic distance ([12]; 111.1 nM): 0.473
phenotypic distance ([12]; 333.3 nM): 0.562
phenotypic distance ([12]; 1000 nM): 0.745
phenotypic distance ([12]; 3000 nM): 0.672
phenotypic distance ([13]; 4.1 nM): 0.465
phenotypic distance ([13]; 12.3 nM): 0.601
phenotypic distance ([13]; 37 nM): 0.61
phenotypic distance ([13]; 111.1 nM): 0.332
phenotypic distance ([13]; 333.3 nM): 0.688
phenotypic distance ([13]; 1000 nM): 0.505
phenotypic distance ([13]; 3000 nM): 1.09
phenotypic distance ([14]; 4.1 nM): 0.835
phenotypic distance ([14]; 12.3 nM): 0.931
phenotypic distance ([14]; 37 nM): 1.01
phenotypic distance ([14]; 111.1 nM): 0.79
phenotypic distance ([14]; 333.3 nM): 0.822
phenotypic distance ([14]; 1000 nM): 0.77
phenotypic distance ([14]; 3000 nM): 1.17

COc1cc(NS(C)(=O)=O)ccc1Nc1c2ccccc2nc2ccccc12 [Amsacrine]
surviving fraction ([1]; 4.1 nM): 0.946
surviving fraction ([1]; 12.3 nM): 0.807
surviving fraction ([1]; 37 nM): 0.489
surviving fraction ([1]; 111.1 nM): 0.414
surviving fraction ([1]; 333.3 nM): 0.414
surviving fraction ([1]; 1000 nM): 0.387
surviving fraction ([1]; 3000 nM): 0.132
surviving fraction ([2]; 4.1 nM): 0.908
surviving fraction ([2]; 12.3 nM): 1.08
surviving fraction ([2]; 37 nM): 0.72
surviving fraction ([2]; 111.1 nM): 0.45
surviving fraction ([2]; 333.3 nM): 0.388
surviving fraction ([2]; 1000 nM): 0.197
surviving fraction ([2]; 3000 nM): 0.0813
surviving fraction ([3]; 4.1 nM): 0.875
surviving fraction ([3]; 12.3 nM): 0.529
surviving fraction ([3]; 37 nM): 0.427
surviving fraction ([3]; 111.1 nM): 0.474
surviving fraction ([3]; 333.3 nM): 0.374
surviving fraction ([3]; 1000 nM): 0.467
surviving fraction ([3]; 3000 nM): 0.126
surviving fraction ([4]; 4.1 nM): 0.573
surviving fraction ([4]; 12.3 nM): 0.509
surviving fraction ([4]; 37 nM): 0.314
surviving fraction ([4]; 111.1 nM): 0.247
surviving fraction ([4]; 333.3 nM): 0.288
surviving fraction ([4]; 1000 nM): 0.244
surviving fraction ([4]; 3000 nM): 0.0342
surviving fraction ([5]; 4.1 nM): 0.977
surviving fraction ([5]; 12.3 nM): 0.867
surviving fraction ([5]; 37 nM): 0.823
surviving fraction ([5]; 111.1 nM): 0.552
surviving fraction ([5]; 333.3 nM): 0.493
surviving fraction ([5]; 1000 nM): 0.484
surviving fraction ([5]; 3000 nM): 0.379
surviving fraction ([6]; 4.1 nM): 0.935
surviving fraction ([6]; 12.3 nM): 0.759
surviving fraction ([6]; 37 nM): 0.484
surviving fraction ([6]; 111.1 nM): 0.21
surviving fraction ([6]; 333.3 nM): 0.192
surviving fraction ([6]; 1000 nM): 0.161
surviving fraction ([6]; 3000 nM): 0.0825
surviving fraction ([7]; 4.1 nM): 0.745
surviving fraction ([7]; 12.3 nM): 0.751
surviving fraction ([7]; 37 nM): 0.593
surviving fraction ([7]; 111.1 nM): 0.731
surviving fraction ([7]; 333.3 nM): 0.745
surviving fraction ([7]; 1000 nM): 0.645
surviving fraction ([7]; 3000 nM): 0.363
phenotypic distance ([8]; 4.1 nM): 0.565
phenotypic distance ([8]; 12.3 nM): 1.43
phenotypic distance ([8]; 37 nM): 4.51
phenotypic distance ([8]; 111.1 nM): 6.51
phenotypic distance ([8]; 333.3 nM): 6.57
phenotypic distance ([8]; 1000 nM): 6.84
phenotypic distance ([8]; 3000 nM): 7.75
phenotypic distance ([9]; 4.1 nM): 0.893
phenotypic distance ([9]; 12.3 nM): 1.83
phenotypic distance ([9]; 37 nM): 2.5
phenotypic distance ([9]; 111.1 nM): 6.57
phenotypic distance ([9]; 333.3 nM): 6.68
phenotypic distance ([9]; 1000 nM): 5.68
phenotypic distance ([9]; 3000 nM): 7.87
phenotypic distance ([10]; 4.1 nM): 1.15
phenotypic distance ([10]; 12.3 nM): 2.1
phenotypic distance ([10]; 37 nM): 3.15
phenotypic distance ([10]; 111.1 nM): 2.93
phenotypic distance ([10]; 333.3 nM): 3.24
phenotypic distance ([10]; 1000 nM): 3.28
phenotypic distance ([10]; 3000 nM): 4.07
phenotypic distance ([11]; 4.1 nM): 1.63
phenotypic distance ([11]; 12.3 nM): 3.02
phenotypic distance ([11]; 37 nM): 3.7
phenotypic distance ([11]; 111.1 nM): 3.82
phenotypic distance ([11]; 333.3 nM): 2.97
phenotypic distance ([11]; 1000 nM): 3
phenotypic distance ([11]; 3000 nM): 6.79
phenotypic distance ([12]; 4.1 nM): 0.614
phenotypic distance ([12]; 12.3 nM): 1.45
phenotypic distance ([12]; 37 nM): 2.78
phenotypic distance ([12]; 111.1 nM): 6.15
phenotypic distance ([12]; 333.3 nM): 5.83
phenotypic distance ([12]; 1000 nM): 4.78
phenotypic distance ([12]; 3000 nM): 3.81
phenotypic distance ([13]; 4.1 nM): 0.741
phenotypic distance ([13]; 12.3 nM): 2.05
phenotypic distance ([13]; 37 nM): 4.75
phenotypic distance ([13]; 111.1 nM): 10.6
phenotypic distance ([13]; 333.3 nM): 10.7
phenotypic distance ([13]; 1000 nM): 8.66
phenotypic distance ([13]; 3000 nM): 6.92
phenotypic distance ([14]; 4.1 nM): 0.866
phenotypic distance ([14]; 12.3 nM): 1.42
phenotypic distance ([14]; 37 nM): 1.99
phenotypic distance ([14]; 111.1 nM): 2.25
phenotypic distance ([14]; 333.3 nM): 2.14
phenotypic distance ([14]; 1000 nM): 2.2
phenotypic distance ([14]; 3000 nM): 3.03
